The values below are quoted from earlier work in patent publication US11737988B2, “Anti-hypertensive and cholesterol-lowering fixed-dose combination and method of manufacture” (CardioPharma, Inc., priority 2019, dated 2023).

For orientation: bioavailability means dose-corrected exposure relative to a reference, in per cent.

The conditions of this series: cholesterol-lowering drugs (statins); known to those of skill in the art.

On to `COCc1c(C(C)C)nc(C(C)C)c(/C=C/[C@@H](O)C[C@@H](O)CC(=O)O)c1-c1ccc(F)cc1` [cerivastatin], for which the bioavailability was 60%.

For `O=C(O)C[C@H](O)C[C@H](O)/C=C/c1c(C2CC2)nc2ccccc2c1-c1ccc(F)cc1` [pitvastatin], the bioavailability is 60%.
